Reference: PMC11396667, “Design, Synthesis, and Anticancer and Antibacterial Activities of Quinoline-5-Sulfonamides” (Molecules, 2024)
In brackets after ≈: the same amount, converted by molar mass.

Tests used:
[1] = system: vancomycin-resistant E. faecalis VRE 725B; test: MIC, microtitration broth method, VRE3; format: cell-based; settings: Enterococcus faecalis, 24 h, 37 °C, BHI broth
From the text: (§1) Since there is a general decrease in immunity during the treatment of oncological patients, i.e., patients are more susceptible to infectious diseases, it is advantageous if anticancer agents show antimicrobial properties at the same time. Therefore, the effects of the compounds were also investigated against Gram-positive bacteria. For this purpose, the susceptible collection strains of aerobic Staphylococcus aureus ATCC 29213 and facultatively aerobic Enterococcus faecalis ATCC 29212 and resistant clinical isolates of methicillin-resistant S. aureus (MRSA) SA 3202, SA 630 carrying the mecA gene, and vancomycin-resistant isolates of E. faecalis (VRE) 342B, 368, and 725B carrying the vanA gene were selected. Thus, the selection of the studied bacterial strains was adopted following the CLSI ([…]) international reference methodologies.
(§2) The in vitro antibacterial activity of the synthesized compounds was evaluated against representatives of multidrug-resistant bacteria, […] clinical isolates of methicillin-resistant S. aureus: clinical isolates of human origin, MRSA SA 3202, and MRSA SA 630 (National Institute of Public Health, Prague, Czech Republic), carrying the mecA gene. These two clinical isolates were classified as vancomycin-susceptible (but with a higher MIC of vancomycin equal to 2 μg/mL (VA2-MRSA). Vancomycin- and methicillin-susceptible S. aureus ATCC 29213 and vancomycin-susceptible Enterococcus faecalis ATCC 29212, obtained from the American Type Culture Collection, were used as the reference and quality control strains. Three vanA gene-carrying vancomycin-resistant isolates of E. faecalis (VRE 342B, VRE 368, VRE 725B) (Department of Infectious Diseases and Microbiology, Faculty of Veterinary Medicine, University of Veterinary Sciences Brno, Czech Republic) were provided by Oravcova et al..
(§3) The minimum inhibitory concentrations (MICs) were evaluated by the microtitration broth method according to the CLSI, with some modifications. The compounds were dissolved in DMSO (Sigma, St. Louis, MO, USA) to obtain a concentration of […] and diluted in a microtitration plate in an appropriate medium, i.e., Cation-Adjusted Mueller–Hinton Broth (CaMH, Oxoid, Basingstoke, UK) for staphylococci, and Brain Heart Infusion Broth (BHI, Oxoid) for enterococci to reach the final concentration of 256–0.125 µg/mL. Microtiter plates were inoculated with test microorganisms so that the final concentration of bacterial cells was 10^5. Ampicillin, oxacillin, and ciprofloxacin (Sigma) were used as reference drugs. A drug-free control and a sterility control were included. The plates were incubated for 24 h at 37 °C for staphylococci and enterococci. […] The experiments were repeated three times.

[2] = system: A549 (human lung adenocarcinoma) cells; test: WST-1 cell viability assay, A549; format: cell-based; settings: Homo sapiens, A549; WST-1, 72 h exposure, ± SD, n = 6
Description: The synthesized compounds were tested using three cancer cell lines—human amelanotic melanoma (C-32), human breast adenocarcinoma (MDA-MB-231), and human lung adenocarcinoma (A549)—and, for comparison, normal human dermal fibroblasts (HFF-1). The WST-1 (water-soluble tetrazole salt) assay was used to evaluate the effect of the synthesized compounds on the viability of cultured cells.
Compounds were evaluated for their antiproliferative activity using three cultured cell lines: C-32 (human amelanotic melanoma, ATCC, Manassas, VA, USA), A549 (human lung adenocarcinoma, ATCC, Manassas, VA, USA), MDA-MB-231 (human breast adenocarcinoma derived from metastatic site: pleural effusion, ATCC, Manassas, VA, USA), together with HFF-1 (normal human dermal fibroblasts, ATCC, Manassas, VA, USA). The cultured cells were kept at 37 °C and 5% CO2.
Cells were seeded in 96-well plates at 5000/well in 100 μL of medium. After 24 h of incubation, the medium was replaced with a new one with the addition of the test substance. After 72 h, the following tests were performed: with crystal violet (determination of the number of adherent cells in the culture), the WST-1 test (determination of the relative number of living cells and their metabolic activity), and the LDH test (determination of the relative number of dead cells in cultures—cytotoxicity of the tested substance).
WST-1 test: The WST-1 test (Roche Diagnostics, Mannheim, Germany) allows one to determine the relative number of cells in cultures. Absorbance is directly proportional to the number of cells and their metabolic activity. The absorbance measurement is performed at λ = 450 nm (reference wave 600 nm).

S. aureus ATCC 29213 = test: MTT assay of bacterial respiratory activity; format: cell-based, Staphylococcus aureus; settings: for S. aureus Respiration Inhibition: 24 h, at the lowest multiple of MIC giving at least 70% inhibition; for Conc.: lowest multiple of MIC with at least 70% inhibition of respiratory activity / Conc.: the same concentration as multiple of MBC: S. aureus ATCC 29213
From the text: The MTT assay can be used to assess cell growth by measuring respiration. Bacterial cell respiratory activity (which is ultimately reflected in their viability) of less than 70% after exposure to the MIC values for each test compound is considered as a positive result for this test. This low level of cellular oxidative metabolism indicates inhibition of cell growth by inhibition of respiration. The lowest multiples of the MIC values by which inhibition of S. aureus ATCC 29213 viability [%] greater than 70% was achieved are shown in Table 4. […] Therefore, the antibacterial activity of the discussed compounds cannot be explained solely on the basis of respiration inhibition, so it is very difficult to draw a conclusion regarding the actual mechanism of action, since 8-HQs are multi-target agents, i.e., they affect several different targets at once (as discussed in the section dedicated to anticancer activity), which subsequently leads to the death of the treated resistant microorganisms.
Compounds were prepared as previously stated and diluted in CaMH broth for S. aureus to achieve the desired final concentrations. S. aureus bacterial suspension in sterile distilled water at 0.5 McFarland was diluted 1:3. Inocula were added to each well by multi-inoculator. Diluted mycobacteria in broth free from inhibiting compounds were used as the growth control. All compounds were prepared in duplicate. Plates were incubated at 37 °C for 24 h for S. aureus. After the incubation period, 10% well volume of MTT (3-(4,5-dimethylthiazol-2-yl)-2,5-diphenyltetrazolium bromide) reagent (Sigma) was mixed into each well and incubated at 37 °C 1 h for S. aureus. Then, 100 µL of 17% sodium dodecyl sulphate in 40% dimethylformamide was added to each well. The plates were read at 570 nm. The absorbance readings from the cells grown in the presence of the tested compounds were compared with uninhibited cell growth to determine the relative percent inhibition. The percent inhibition was determined through MTT assay. The percent viability is calculated through the comparison of a measured value and that of the uninhibited control: % viability = OD570E/OD570P × 100, where OD570E is the reading from the compound-exposed cells, while OD570P is the reading from the uninhibited cells (positive control). Cytotoxic potential is determined by a percent viability of <70% [81, 82].

[3] = system: vancomycin-resistant E. faecalis VRE 368; test: MIC, microtitration broth method, VRE2; format: cell-based; settings: Enterococcus faecalis, 24 h, 37 °C, BHI broth
From the text: as §1, §2, §3

Row | MIC [1] | IC50 [2] | Conc.: lowest multiple of MIC with at least 70% inhibition of respiratory activity (S. aureus ATCC 29213) | MIC [3] | SMILES | S. aureus Respiration Inhibition (S. aureus ATCC 29213) | Conc.: the same concentration as multiple of MBC (S. aureus ATCC 29213)
1 | 977 µM (≈ 256 µg/mL) | 23.1 ± 0.7 µM | 1× MIC (1× MBC) | 977 µM (≈ 256 µg/mL) | C#CCNS(=O)(=O)c1ccc(O)c2ncccc12 [3a, 8-Hydroxy-N-(prop-2-yn-1-yl)quinoline-5-sulfonamide] | 92.5% | 1× MIC (1× MBC)
2 | 883 µM (≈ 256 µg/mL) | 17.2 ± 1.5 µM | 2× MIC (2× MBC) | 883 µM (≈ 256 µg/mL) | C#CC(C)(C)NS(=O)(=O)c1ccc(O)c2ncccc12 [3b, 8-Hydroxy-N-(1,1-dimethylprop-2-yn-1-yl)quinoline-5-sulfonamide] | 94.4% | 2× MIC (2× MBC)
3 | 464 µM (≈ 128 µg/mL) | 13.9 ± 0.6 µM | 2× MIC (2× MBC) | 464 µM (≈ 128 µg/mL) | C#CCN(C)S(=O)(=O)c1ccc(O)c2ncccc12 [3c, 8-Hydroxy-N-methyl-N-(prop-2-yn-1-yl)quinoline-5-sulfonamide] | 95.2% | 2× MIC (2× MBC)

Continued, compound first:

Row | SMILES | MIC [1] | IC50 [2] | Conc.: lowest multiple of MIC with at least 70% inhibition of respiratory activity (S. aureus ATCC 29213) | MIC [3] | S. aureus Respiration Inhibition (S. aureus ATCC 29213) | Conc.: the same concentration as multiple of MBC (S. aureus ATCC 29213)
4 | C#CCOc1ccc(NS(=O)(=O)c2ccc(O)c3ncccc23)cc1 [3d, 8-Hydroxy-N-[4-(prop-2-yn-1-yloxy)phenyl]quinoline-5-sulfonamide] | 362 µM (≈ 128 µg/mL) | 12.9 ± 1.1 µM | 1× MIC (1× MBC) | 362 µM (≈ 128 µg/mL) | 73.0% | 1× MIC (1× MBC)
5 | C#CCOc1cccc(NS(=O)(=O)c2ccc(O)c3ncccc23)c1 [3e, 8-Hydroxy-N-[3-(prop-2-yn-1-yloxy)phenyl]quinoline-5-sulfonamide] | 362 µM (≈ 128 µg/mL) | 11.5 ± 0.7 µM | 1× MIC (1× MBC) | 362 µM (≈ 128 µg/mL) | 73.7% | 1× MIC (1× MBC)
6 | C#CCOc1ccccc1NS(=O)(=O)c1ccc(O)c2ncccc12 [3f, 8-Hydroxy-N-[2-(prop-2-yn-1-yloxy)phenyl]quinoline-5-sulfonamide] | 362 µM (≈ 128 µg/mL) | 19.1 ± 0.8 µM | 1× MIC (1× MBC) | 362 µM (≈ 128 µg/mL) | 81.6% | 1× MIC (1× MBC)
